Data reported in ChEMBL document CHEMBL5113408, “Design, synthesis and antitumour activity of novel 5(6)-amino-benzimidazolequinones containing a fused morpholine” (Eur J Med Chem, 2022).
pIC50: −log10 of the molar value.

Assays:
Format in all cases: functional, cell-based
MGC-803 = assay: Antiproliferative activity against human MGC-803 cells assessed as inhibition of cell growth by SRB assay
MCF7 = assay: Antiproliferative activity against human MCF7 cells assessed as inhibition of cell growth by SRB assay
ECa-109 cell line = assay: Antiproliferative activity against human EC109 cells assessed as inhibition of cell growth by SRB assay
HeLa = assay: Antiproliferative activity against human HeLa cells assessed as inhibition of cell growth by SRB assay

| Structure (SMILES) | pIC50 (MGC-803) | pIC50 (MCF7) | pIC50 (ECa-109 cell line) | pIC50 (HeLa) |
| --- | --- | --- | --- | --- |
| O=C1C(Nc2ccccc2F)=CC(=O)c2c1nc1n2C[C@@H]([C@H](O)CO)OC1 | 5.43 | 5.29 | 5.26 | < 4.80 |
| CCc1ccc(NC2=CC(=O)c3nc4n(c3C2=O)[C@H]2OC[C@@H](O)[C@H]2OC4)cc1 | 5.89 | 6.02 | 5.51 | 5.40 |
| Cc1ccc(NC2=CC(=O)c3nc4n(c3C2=O)[C@H]2OC[C@@H](O)[C@H]2OC4)cc1 | 5.85 | 5.78 | 5.46 | 5.41 |
| CCOc1ccccc1NC1=CC(=O)c2c(nc3n2[C@H]2OC[C@@H](O)[C@H]2OC3)C1=O | 5.55 | < 5.40 | 5.36 | 5.08 |
| O=C1C=C(NC2CCCCC2)C(=O)c2c1nc1n2[C@H]2OC[C@@H](O)[C@H]2OC1 | < 5.10 | < 5.10 | < 4.80 | < 4.80 |
| O=C1C(N2CCC2)=CC(=O)c2c1nc1n2[C@H]2OC[C@@H](O)[C@H]2OC1 | < 4.80 | < 4.80 | < 4.80 | < 4.80 |
| O=C1C(NCc2ccccc2)=CC(=O)c2c1nc1n2[C@H]2OC[C@@H](O)[C@H]2OC1 | 5.46 | < 5.10 | < 5.10 | 4.96 |
| O=C1C=C(Nc2ccccc2)C(=O)c2c1nc1n2C[C@@H]([C@H](O)CO)OC1 | 5.09 | < 4.80 | < 4.80 | 5.22 |
| O=C1C(Nc2ccccc2)=CC(=O)c2c1nc1n2[C@H]2OC[C@@H](O)[C@H]2OC1 | 5.74 | < 5.40 | 5.45 | < 5.10 |
| O=C1C=C(NCc2ccccc2)C(=O)c2c1nc1n2[C@H]2OC[C@@H](O)[C@H]2OC1 | 5.57 | < 5.10 | < 5.10 | < 5.10 |
| CCOc1ccc(NC2=CC(=O)c3nc4n(c3C2=O)C[C@@H]([C@H](O)CO)OC4)cc1 | 5.37 | 4.95 | 5.01 | 5.39 |
| O=C1C(Nc2cccc(Cl)c2)=CC(=O)c2c1nc1n2C[C@@H]([C@H](O)CO)OC1 | 5.54 | 5.24 | 5.22 | 4.86 |
| O=C1C(Nc2ccc(I)cc2)=CC(=O)c2c1nc1n2C[C@@H]([C@H](O)CO)OC1 | 5.61 | 5.29 | 5.50 | 5.26 |
| CCCN(CCC)C1=CC(=O)c2c(nc3n2[C@H]2OC[C@@H](O)[C@H]2OC3)C1=O | < 4.80 | < 4.80 | < 4.80 | < 4.80 |
| COc1ccc(NC2=CC(=O)c3nc4n(c3C2=O)[C@H]2OC[C@@H](O)[C@H]2OC4)cc1 | 5.77 | 5.27 | < 5.40 | 5.32 |
| CCCc1ccc(NC2=CC(=O)c3c(nc4n3[C@H]3OC[C@@H](O)[C@H]3OC4)C2=O)cc1 | 5.72 | < 5.40 | < 5.40 | 5.22 |
| COc1ccccc1NC1=CC(=O)c2nc3n(c2C1=O)[C@H]1OC[C@@H](O)[C@H]1OC3 | 5.79 | < 5.40 | < 5.40 | 5.53 |
| O=C1C(Nc2ccc(C(F)(F)F)cc2)=CC(=O)c2c1nc1n2[C@H]2OC[C@@H](O)[C@H]2OC1 | 5.73 | < 5.40 | 5.65 | 5.05 |
| CCOc1ccc(NC2=CC(=O)c3c(nc4n3C[C@@H]([C@H](O)CO)OC4)C2=O)cc1 | 5.46 | 5.06 | 5.11 | 5.13 |
| O=C1C(N2CCCCC2)=CC(=O)c2c1nc1n2[C@H]2OC[C@@H](O)[C@H]2OC1 | < 5.40 | < 5.10 | < 5.10 | < 4.80 |
| O=C1C(Nc2ccc(Br)cc2)=CC(=O)c2c1nc1n2[C@H]2OC[C@@H](O)[C@H]2OC1 | 5.69 | 5.36 | 5.70 | 5.28 |
| O=C1C=C(Nc2ccc(Br)cc2)C(=O)c2c1nc1n2C[C@@H]([C@H](O)CO)OC1 | 5.56 | 5.21 | 5.08 | 5.37 |
